This passage reports MIC results from US4698352A, “4-oxo-1,4-dihydronicotinic acid derivatives, salts thereof, and antibacterial agents containing the same” (Toyama Chemical Co., Ltd., priority 1982, dated 1987).

Holding throughout (experiment): Antibacterial activity (MIC), agar dilution
Common to all, as to format: cell-based
In general terms: Agar dilution tests growth on a series of plates holding different concentrations.

The subject of one assay is Ps. aeruginosa GN918**. Conditions: Pseudomonas aeruginosa, 20 h; Ps. aeruginosa GN918, cephalospolinase-producing; 10^6 cells per ml; read-out: MIC. An excerpt:
(§1) The amount of bacteria inoculated was 10^4 cells per plate (10^6 cells per ml).
(§2) ** Cephalospolinase-producing bacteria

A further assay relates to Pro. vulgaris GN76**. The following applies: Proteus vulgaris, 20 h; Pro. vulgaris GN76, cephalospolinase-producing; 10^6 cells per ml; read-out: MIC.
Description: as §1, §2

In another assay the test system is E. coli GN5482**. Conditions: Escherichia coli, 20 h; E. coli GN5482, cephalospolinase-producing; 10^6 cells per ml; read-out: MIC.
Description: as §1, §2

The next assay deals with Kl. pneumoniae Y-4*. The following applies: Klebsiella pneumoniae, 20 h, Kl. pneumoniae Y-4, penicillinase-producing; 10^6 cells per ml; read-out: MIC.
Description: as §1
(§3) * Penicillinase-producing bacteria

In the next assay the test system is E. coli TK-3*. Conditions: Escherichia coli, 20 h.
Description: as §1, §3

For the next assay, the system named is Ps. aeruginosa GN3379*. Conditions: Pseudomonas aeruginosa, Ps. aeruginosa GN3379, penicillinase-producing, 10^6 cells per ml.
Description: as §1, §3

Another assay has as its system St. aureus F-137*. The following applies: Staphylococcus aureus, 20 h, St. aureus F-137, penicillinase-producing; 10^6 cells per ml; read-out: MIC.
Description: as §1, §3

The test system of a further assay is St. aureus FDA209P. The following applies: Staphylococcus aureus, FDA209P, 20 h, St. aureus FDA209P; 10^6 cells per ml; 37° C., 20 hours; read-out: MIC.
Description: as §1

The subject of another assay is Kl. pneumoniae Y-41. Conditions: Klebsiella pneumoniae, Y41, 10^6 cells per ml, 37° C., 20 hours, read-out: MIC.
Description: as §1

Another assay concerns E. coli TK-111. Conditions: Escherichia coli, TK111, 20 h, E. coli TK-111; 10^6 cells per ml; 37° C., 20 hours; read-out: MIC.
Description: as §1

The next assay deals with Pro. vulgaris GN3027. The following applies: Proteus vulgaris, GN3027, 20 h, Pro. vulgaris GN3027; 10^6 cells per ml; 37° C., 20 hours; read-out: MIC.
Description: as §1

Another assay relates to Ent. cloacae IID977. The following applies: Enterobacter cloacae, IID977, 20 h.
Description: as §1

A further assay concerns Ps. aeruginosa S-68. The following applies: Pseudomonas aeruginosa.
Description: as §1

The test system of a further assay is Pro. mirabilis T-111. The following applies: Proteus mirabilis, 37° C.
Description: as §1

The subject of a further assay is Pro. morganii T-216. The following applies: Morganella morganii, 37° C.
Description: as §1

The next assay has as its system Ps. aeruginosa IFO3445. The following applies: Pseudomonas aeruginosa.
Description: as §1

The subject of a further assay is Kl. pneumoniae Y-50. The following applies: Klebsiella pneumoniae, Y50, 20 h, 10^6 cells per ml, 37° C., read-out: MIC.
Description: as §1

A further assay deals with E. coli NIHJ JC-2. Conditions: Escherichia coli, NIHJJC2, 20 h.
Description: as §1

Another assay concerns Aci. antitratus A-6. The following applies: 20 h, Aci. antitratus A-6; 10^6 cells per ml; 37° C., 20 hours; read-out: MIC.
Description: as §1

The mark [1] stands for this setting: E. coli TK-3, penicillinase-producing, 10^6 cells per ml, read-out: MIC.
[2] abbreviates: Ent. cloacae IID977, 10^6 cells per ml, 37° C., 20 hours, read-out: MIC.
Setting [3] is: T216, 10^6 cells per ml, 20 hours, read-out: MIC.
Where [4] appears, read: E. coli NIHJ JC-2, 10^6 cells per ml, 37° C., 20 hours, read-out: MIC.

Each structure is given as a SMILES string. Converted amounts (≈) assume the structure as drawn. Where two headings read alike, the source gives them in different places. Some results are limits rather than exact numbers.

For `O=C(O)c1cn(-c2ccc(F)cc2)c(-c2cc3ccccc3s2)cc1=O`, the MIC with Ps. aeruginosa GN918** is 1.56 µg/mL (≈ 4.27 µM); with Pro. vulgaris GN76**, 1.56 µg/mL (≈ 4.27 µM); with E. coli GN5482**, 0.39 µg/mL (≈ 1.07 µM); with Kl. pneumoniae Y-4*, 12.5 µg/mL (≈ 34.2 µM); against E. coli TK-3*, 3.13 µg/mL (≈ 8.57 µM); against Ps. aeruginosa GN3379* (GN3379, 20 h), 12.5 µg/mL (≈ 34.2 µM). The MIC was 0.39 µg/mL (≈ 1.07 µM) in the assay with St. aureus F-137*; 0.78 µg/mL (≈ 2.13 µM) with St. aureus FDA209P; 6.25 µg/mL (≈ 17.1 µM) with Kl. pneumoniae Y-41; 0.78 µg/mL (≈ 2.13 µM) with E. coli TK-111; 0.39 µg/mL (≈ 1.07 µM) in the assay on Pro. vulgaris GN3027; 3.13 µg/mL (≈ 8.57 µM) with Ent. cloacae IID977. In addition, the MIC against Ps. aeruginosa S-68 (S68, 20 h) stood at 6.25 µg/mL (≈ 17.1 µM); against Pro. mirabilis T-111 (T111, 20 h, 10^6 cells per ml), 3.13 µg/mL (≈ 8.57 µM); against Pro. morganii T-216 (T216, 20 h, 10^6 cells per ml), 3.13 µg/mL (≈ 8.57 µM); in the assay with Ps. aeruginosa IFO3445 (IFO3445, 20 h) it was 12.5 µg/mL (≈ 34.2 µM); in the assay on Kl. pneumoniae Y-50 it was 3.13 µg/mL (≈ 8.57 µM); against E. coli NIHJ JC-2, 3.13 µg/mL (≈ 8.57 µM).
With `Cc1cc(O)ccc1-n1cc(C(=O)O)c(=O)cc1-c1ccc(-c2cccs2)cc1`, the MIC with Ps. aeruginosa GN918** is 0.78 µg/mL (≈ 1.93 µM); in the assay with Pro. vulgaris GN76**, 0.2 µg/mL (≈ 0.496 µM); with E. coli GN5482**, at most 0.05 µg/mL; in the assay on Kl. pneumoniae Y-4*, 0.78 µg/mL (≈ 1.93 µM); in the assay with E. coli TK-3* (setting [1]), 0.39 µg/mL (≈ 0.967 µM); with Ps. aeruginosa GN3379* (20 h, read-out: MIC), 3.13 µg/mL (≈ 7.76 µM). Further, the MIC is at most 0.05 µg/mL in the assay on St. aureus F-137*; at most 0.05 µg/mL in the assay with St. aureus FDA209P; 0.78 µg/mL (≈ 1.93 µM) with Kl. pneumoniae Y-41; at most 0.05 µg/mL with E. coli TK-111; at most 0.05 µg/mL with Pro. vulgaris GN3027; 0.39 µg/mL (≈ 0.967 µM) with Ent. cloacae IID977 (setting [2]). Also, the MIC was 1.56 µg/mL (≈ 3.87 µM) with Ps. aeruginosa S-68 (S68, Ps. aeruginosa S-68, 10^6 cells per ml, 37° C., 20 hours, read-out: MIC); 0.39 µg/mL (≈ 0.967 µM) in the assay with Pro. mirabilis T-111 (T111, 10^6 cells per ml, 20 hours, read-out: MIC); 0.39 µg/mL (≈ 0.967 µM) in the assay on Pro. morganii T-216 (setting [3]); 6.25 µg/mL (≈ 15.5 µM) in the assay with Ps. aeruginosa IFO3445 (Ps. aeruginosa IFO3445, 10^6 cells per ml, 37° C., 20 hours, read-out: MIC); 0.39 µg/mL (≈ 0.967 µM) in the assay with Kl. pneumoniae Y-50; 0.1 µg/mL (≈ 0.248 µM) in the assay with E. coli NIHJ JC-2 (setting [4]).
Regarding `O=C(O)c1cn(-c2ccc(O)cc2)c(-c2ccc3ccsc3c2)cc1=O`, the MIC was 0.78 µg/mL (≈ 2.15 µM) in the assay on Ps. aeruginosa GN918**; 0.39 µg/mL (≈ 1.07 µM) in the assay with Pro. vulgaris GN76**; at most 0.05 µg/mL in the assay on E. coli GN5482**; 1.56 µg/mL (≈ 4.29 µM) with Kl. pneumoniae Y-4*; 0.39 µg/mL (≈ 1.07 µM) in the assay with E. coli TK-3* (setting [1]); 3.13 µg/mL (≈ 8.61 µM) in the assay on Ps. aeruginosa GN3379* (20 h, read-out: MIC). Further, the MIC in the assay on St. aureus F-137* was 0.1 µg/mL (≈ 0.275 µM); in the assay with St. aureus FDA209P, 0.1 µg/mL (≈ 0.275 µM); in the assay with Kl. pneumoniae Y-41 it was 0.78 µg/mL (≈ 2.15 µM); in the assay with E. coli TK-111, at most 0.05 µg/mL; in the assay with Pro. vulgaris GN3027, at most 0.05 µg/mL; with Ent. cloacae IID977 (setting [2]) it was 0.39 µg/mL (≈ 1.07 µM). Further, the MIC with Ps. aeruginosa S-68 (S68, 20 h) was 1.56 µg/mL (≈ 4.29 µM); with Pro. mirabilis T-111 (T111, 20 h, 10^6 cells per ml), 1.56 µg/mL (≈ 4.29 µM); with Pro. morganii T-216 (setting [3]) it was 0.39 µg/mL (≈ 1.07 µM); in the assay on Ps. aeruginosa IFO3445 (IFO3445, 20 h), 1.56 µg/mL (≈ 4.29 µM); in the assay with Kl. pneumoniae Y-50, 0.39 µg/mL (≈ 1.07 µM); in the assay with E. coli NIHJ JC-2 (setting [4]), 0.2 µg/mL (≈ 0.55 µM).
As to `CC(=O)Oc1ccc(-n2cc(C(=O)O)c(=O)cc2-c2cc3ccccc3o2)cc1`, the MIC with Pro. vulgaris GN76** is 1.56 µg/mL (≈ 4.01 µM); in the assay on E. coli GN5482**, 0.2 µg/mL (≈ 0.514 µM); in the assay with Kl. pneumoniae Y-4*, 12.5 µg/mL (≈ 32.1 µM); in the assay with E. coli TK-3* (setting [1]), 3.13 µg/mL (≈ 8.04 µM); against Ps. aeruginosa GN3379* (GN3379, 20 h), 6.25 µg/mL (≈ 16.1 µM); with St. aureus F-137*, 0.39 µg/mL (≈ 1 µM). Further, the MIC in the assay with Aci. antitratus A-6 worked out at 0.78 µg/mL (≈ 2 µM); in the assay with St. aureus FDA209P, 0.39 µg/mL (≈ 1 µM); in the assay with Kl. pneumoniae Y-41, 6.25 µg/mL (≈ 16.1 µM); with E. coli TK-111, 0.78 µg/mL (≈ 2 µM); in the assay with Pro. vulgaris GN3027 it was 0.39 µg/mL (≈ 1 µM); with Ent. cloacae IID977 (setting [2]), 3.13 µg/mL (≈ 8.04 µM). The MIC in the assay on Ps. aeruginosa S-68 (S68, 20 h) is 6.25 µg/mL (≈ 16.1 µM); in the assay with Pro. mirabilis T-111 (T111, 20 h, 10^6 cells per ml), 6.25 µg/mL (≈ 16.1 µM); in the assay with Pro. morganii T-216 (setting [3]), 3.13 µg/mL (≈ 8.04 µM); with Ps. aeruginosa IFO3445 (IFO3445, 20 h), 6.25 µg/mL (≈ 16.1 µM); in the assay with Kl. pneumoniae Y-50, 0.78 µg/mL (≈ 2 µM); with E. coli NIHJ JC-2 (setting [4]), 1.56 µg/mL (≈ 4.01 µM).
Consider `COc1ccc(-c2ccc(-c3cc(=O)c(C(=O)O)cn3-c3ccc(O)cc3)s2)cc1`, for which the MIC in the assay on Pro. vulgaris GN76** was 0.39 µg/mL (≈ 0.93 µM); in the assay with E. coli GN5482**, at most 0.05 µg/mL; with Kl. pneumoniae Y-4* it was 3.13 µg/mL (≈ 7.46 µM); with E. coli TK-3* (setting [1]), 0.78 µg/mL (≈ 1.86 µM); in the assay on Ps. aeruginosa GN3379* (20 h, read-out: MIC), 6.25 µg/mL (≈ 14.9 µM); in the assay on St. aureus F-137*, 0.1 µg/mL (≈ 0.238 µM). Moreover, the MIC in the assay with Aci. antitratus A-6 was 0.39 µg/mL (≈ 0.93 µM); in the assay on St. aureus FDA209P, 0.1 µg/mL (≈ 0.238 µM); with Kl. pneumoniae Y-41, 1.56 µg/mL (≈ 3.72 µM); in the assay on E. coli TK-111, 0.1 µg/mL (≈ 0.238 µM); with Pro. vulgaris GN3027, 0.2 µg/mL (≈ 0.477 µM); in the assay with Ent. cloacae IID977 (setting [2]), 0.78 µg/mL (≈ 1.86 µM). In addition, the MIC in the assay with Ps. aeruginosa S-68 (S68, 20 h) came to 1.56 µg/mL (≈ 3.72 µM); with Pro. mirabilis T-111 (T111, 20 h, 10^6 cells per ml), 1.56 µg/mL (≈ 3.72 µM); with Pro. morganii T-216 (setting [3]) it was 0.78 µg/mL (≈ 1.86 µM); against Ps. aeruginosa IFO3445 (IFO3445, 20 h), 3.13 µg/mL (≈ 7.46 µM); with Kl. pneumoniae Y-50, 0.78 µg/mL (≈ 1.86 µM); in the assay on E. coli NIHJ JC-2 (setting [4]), 0.39 µg/mL (≈ 0.93 µM).

Broadly, the MIC is the smallest concentration in the dilution series that meets the test's criterion for growth inhibition.
